Data: patent publication US8501183B2, “Immunogenic compositions and diagnostic and therapeutic uses thereof” (The Walter and Eliza Hall Institute of Medical Research, priority 2002, dated 2013)

Columns and labels:
[1] = test system: human antibody responses to the native GPI toxin; assay: Competition ELISA, synthetic glycan vs GPI; format: binding; settings: competitor in molar excess
[2] = test system: anti-Glycan antibodies in human serum; assay: ELISA of human serum against synthetic glycan antigen; format: binding; settings: serum of a malaria-exposed Papua New Guinean donor; BSA-conjugated glycan
[3] = IgG response of mice immunized with synthetic GPI glycan conjugate; format: in vivo; settings: rodents
Description: All experiments were in accordance with local Animal Ethics Committee regulations. Young adult C57BL6 mice from Jackson Laboratories were pre-bled and inoculated with 6.5 μg KLH-glycan (0.176 μg glycan, n=16) or KLH-cysteine (sham-immunized, n=24) emulsified in Freund's Complete Adjuvant, and boosted with equal amounts of immunogen in Incomplete Freund's Adjuvant at 2 weekly intervals. After two boosts they were rested and injected i.p with 1×10^6 P. berghei ANKA-infected erythrocytes. Naïve mice (n=12) served as unimmunized controls. Parasitemias were assessed from Giemsa-stained thin films. Mortality was checked twice daily. Mice were judged as developing cerebral malaria if displaying neurological signs such as loss of reflex or ataxia, and dying between days 5 to 12 post-infection with relatively low parasitemia levels (below 15%). Differences in survival curves of P. berghei infected mice across this time-period were assessed by Cox-Mantel logrank transformation on Kaplan-Meier plots. Deaths from day 14 onwards with high parasitaemia (>60%) and low rates of cerebral vascular occlusion were ascribed to hyperparasitaema/haemolysis, and all animals failing to develop cerebral malaria eventually succumbed to this syndrome.
The synthetic malarial GPI glycan was immunogenic in rodents. […] No reactivity to GPI glycan was detected in pre-immune sera or in animals receiving sham-conjugated KLH. […]

[4] = ELISA titres of anti-GPI antibodies in sera of immunized mice; format: in vivo; settings: mice immunized with free GPI in IFA
Description: Antigen (GPI-OVA, Glycan-OVA, BSA-PI, OVA or BSA alone) at 20 μg/ml in phosphate binding buffer was incubated overnight in 50 μl volumes in flat-bottomed Immunlon 96-well plates, followed by extensive washing with buffer. The plates were blocked with 1% BSA, 1% OVA in PBS for several hours. From a 1/32 dilution, sera were titrated two-fold in 1% BSA, 1% OVA in PBS, and 50 μl aliquots incubated in triplicate for 2 hours at room temperature, followed by extensive washing with 1% BSA, 1% OVA 0.05% Tween-20 in PBS. An aliquot of affinity purified, biotin-labelled isotype specific goat anti-mouse second antibody was incubated as above, followed by further washing and the addition of streptavidin-alkaline phosphatase. After 30 minutes the plates were washed again and colourimetric development initiated by the addition of p-Nitrophenylphosphate in diethanolamine buffer. Background binding to BSA/OVA-coated plates was determined in parallel. […]
Mice were immunized by three successive boosts of free intact malarial GPI emulsified in Incomplete Freund's Adjuvant spaced two weeks apart. […] After immunization, sera were bled and the titres of anti-GPI antibodies determined by ELISA. […] Parasitaemia, the development of neurological complications, and mortality were recorded daily. […]

[5] = format: in vivo, C3H/HeJ and C57B16 mice; settings: primed with 20 mg D-galactosamine, agent after 1 hour
Description: In addition a standard murine model of TNF-driven lethality was used to determine whether GPI mediates parasite-induced acute toxic shock. This model manifests disseminated intravascular coagulation, peripheral vascular failure and shock, and thus has clinical features in common with the human “algid malaria” syndrome. LPS-non-responsive C3H/HeJ and C57B16 mice were primed with 20 mg D-galactosamine followed after 1 hour by purified GPI, PE or PBS alone.

[6] = Competition / PI-specific ELISA, epitope mapping of anti-GPI antibodies; format: binding; settings: sera of mice immunized with free GPI
Description: Coupling of the purified GPI glycan to proteins was undertaken as above. To measure anti-lipid reactivities, we utilized commercially available phosphatidylinositol from Sigma with identical composition to the malarial GPI, namely dipalmitoyl-PI. 2 mg PI was coupled to defatted BSA according to published protocols (Bate, C. A. W., Taverne, J., Kwiatkowski, D., and Playfair, J. H. L. (1993) Immunology 79:138-145).
From a 1/32 dilution, sera or mAbs were titrated two-fold in 1% BSA in PBS, 0.05% Tween-20, and pre-incubated for 4 hours at room temperature with a molar excess of competitior (20 μg/ml PI, or phosphatidylserine (PS), or diluent alone). Antigen (BSA-PI or BSA alone) at 20 μg/ml in phosphate binding buffer was incubated overnight in 50 μl volumes in flat-bottomed Immunlon 96-well plates, followed by extensive washing with buffer. The plates were blocked with 1% BSA in PBS for several hours. 50 μl aliquots of titrated antibody with or without competitor were incubated in triplicate for 2 hours at room temperature, followed by extensive washing with 1% BSA 0.05% Tween-20 in PBS. An aliquot of affinity purified, biotin-labelled isotype specific goat anti-mouse second antibody was incubated as above, followed by further washing and the addition of streptavidin-alkaline phosphatase. […] Background binding to BSA-coated plates was determined in parallel. […]

P. berghei ANKA = P. berghei ANKA cerebral malaria challenge of immunized mice; format: in vivo, C57Bl/6 mice
Text: Mice were immunized by three successive boosts of free intact malarial GPI emulsified in Incomplete Freund's Adjuvant spaced two weeks apart. Control mice received an equal amount of IFA alone. After immunization, sera were bled and the titres of anti-GPI antibodies determined by ELISA. All animals immunized with GPI developed broadly similar levels of anti-GPI antibodies (range 1/1024-1/4096) among individual animals. […] Two weeks after the final boost mice were challenged with P. berghei ANKA. Parasitaemia, the development of neurological complications, and mortality were recorded daily. No difference in parasitaemia was observed. In the control group, 100% of animal manifested between day 5 and 9 an aggressive cerebral syndrome with neurological signs proceeding to rapid death with 12 hours. […]
The P. berghei ANKA murine cerebral malaria model has many features in common with the human cerebral malaria syndrome. […] Parasitaemia, the development of neurological complications, and mortality were recorded daily. […]

Substance	competition of human antibody responses to native GPI [1]	detection of antibodies in human serum [2]	immunogenicity [3]	isotype of the anti-GPI response [4]	recipients with lethal shock [5]	epitope specificity of the antibody response [6]	parasitaemia (P. berghei ANKA; after P. berghei ANKA challenge two weeks after final boost, vs control groups)	rate of deaths (P. berghei ANKA; free GPI in IFA vs IFA alone, P. berghei ANKA challenge)
NH2—CH2—CH2—PO4-(Manα1-2)6Manα1-2Manα1-6Manα1-4GlcNH2α1-6myo-Insositol-1,2 cyclic phosphate [synthetic GPI glycan]	compete out the majority of human antibody responses to the native GPI toxin	able specifically to detect anti-Glycan antibodies in human serum	immunogenic	–	–	–	–	–
NH—CH2—CH2—PO4-(Manα1-2)-6Manα1-2Manα1-6Manα1-4GlcN-H2α1-6(myristoyl)-myo-Inositol-1-PO4-dipalmitoylglycerol [free GPI]	–	–	–	predominantly IgM	100%	directed predominantly towards the lipidic (phosphatidylinositol, PI) domain of the molecule	No difference	noticeable faster rate
